Data published in patent publication US9914730B2, “Azaquinazoline inhibitors of Atypical protein Kinase C” (Ignyta, Inc., priority 2012, dated 2018).

target: T1, full-length human PKCι (Homo sapiens, UniProt P41743); experiment: PKCι IC50 IMAP assay, full-length PKCι at 150 μM ATP; format: biochemical; conditions: read-out: IC50 in IMAP assay against full length PKCi at 150 μM ATP
T1 construct: Recombinant, full-length human PKCι expressed in Sf21 insect cells is also commercially available; purchased; host or cells: Sf21 insect cells
T1 sequence (P41743 1-596): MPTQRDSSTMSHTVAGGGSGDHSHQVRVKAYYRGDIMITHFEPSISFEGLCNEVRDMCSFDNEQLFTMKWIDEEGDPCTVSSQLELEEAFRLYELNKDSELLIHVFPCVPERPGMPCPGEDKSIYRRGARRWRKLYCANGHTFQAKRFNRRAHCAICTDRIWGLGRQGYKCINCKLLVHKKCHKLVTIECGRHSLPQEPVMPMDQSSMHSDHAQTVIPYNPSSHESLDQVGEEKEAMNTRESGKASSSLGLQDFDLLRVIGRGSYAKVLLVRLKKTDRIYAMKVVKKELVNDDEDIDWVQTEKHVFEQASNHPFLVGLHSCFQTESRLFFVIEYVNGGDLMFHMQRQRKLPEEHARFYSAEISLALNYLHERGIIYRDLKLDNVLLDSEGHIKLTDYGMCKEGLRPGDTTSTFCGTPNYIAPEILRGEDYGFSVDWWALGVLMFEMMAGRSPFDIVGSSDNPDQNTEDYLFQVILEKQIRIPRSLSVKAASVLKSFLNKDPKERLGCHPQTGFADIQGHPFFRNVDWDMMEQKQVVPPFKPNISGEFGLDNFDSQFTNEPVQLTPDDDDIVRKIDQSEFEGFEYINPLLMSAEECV
In short: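 Dose-response IC50 values come from IMAP fluorescence polarisation after 60 min room-temperature turnover of 100 nM FAM peptide by ~15 pM insect-cell-expressed full-length PKCι at 150 μM ATP (5× KM^APP), normalised to no-compound and no-enzyme controls.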

IC50, 100 to 1000 nM:
N[C@H](CNc1nc(-c2ccncc2)nc2c(-c3ccncc3)nccc12)Cc1ccccc1 [Example 100, N-[(2S)-2-amino-3-phenylpropyl]-2,8-bis(pyridin-4-yl)pyrido[3,4-d]pyrimidin-4-amine]
COc1cncc2nc(-c3ccncc3)nc(N3CCCCC3)c12 [Example 151, 5-Methoxy-4-piperidin-1-yl-2-pyridin-4-yl-pyrido[3,4-d]pyrimidine]
OC[C@H](Nc1cc(-c2nc(N3CCNCC3)c3c(C4CC4)cncc3n2)ccn1)c1ccccc1 [Example 2159, (R)-2-[4-(5-Cyclopropyl-4-piperazin-1-yl-pyrido[3,4-d]pyrimidin-2-yl)-pyridin-2-ylamino]-2-phenyl-ethanol]
Fc1cnccc1-c1nc(N[C@@H]2CCNC2)c2ccncc2n1 [Example 8, (3R)-N-[2-(3-fluoropyridin-4-yl)-pyrido[3,4-d]-pyrimidin-4-yl]-pyrrolidin-3-amine]
COc1cncc2nc(-c3ccncc3)nc(N3CC[C@H](N)C3)c12 [Example 53, (3S)-1-[5-methoxy-2-(pyridin-4-yl)-pyrido[3,4-d]-pyrimidin-4-yl]-pyrrolidin-3-amine]

IC50, 1000 to 10000 nM:
N[C@H](CNc1nc(-c2ccncc2)nc2c(-c3cccc(-c4ccn[nH]4)c3)nccc12)Cc1ccccc1 [Example 120, N-[(2S)-2-amino-3-phenylpropyl]-8-[3-(1H-pyrazol-5-yl)phenyl]-2-(pyridin-4-yl)pyrido[3,4-d]pyrimidin-4-amine]
C#CC1CN(c2nc(-c3ccncc3)nc3cnccc23)CCN1 (centres unmarked) [Example 71, 3-ethynyl-1-[2-(pyridin-4-yl)-pyrido[3,4-d]-pyrimidin-4-yl]-piperazine]

IC50, < 100 nM:
CN1Cc2ccc(Nc3cc(-c4nc(N5CCC(O)CC5)c5c(C6CC6)cncc5n4)ccn3)cc2C1 [Example 821, 1-{5-Cyclopropyl-2-[2-(2-methyl-2,3-dihydro-1H-isoindol-5-ylamino)-pyridin-4-yl]-pyrido[3,4-d]pyrimidin-4-yl}-piperidin-4-ol]
Fc1cc(F)c(Nc2cc(-c3nc(N4CCNCC4)c4c(C5CCC5)cncc4n3)ccn2)nc1F [Example 807, [4-(5-Cyclobutyl-4-piperazin-1-yl-pyrido[3,4-d]pyrimidin-2-yl)-pyridin-2-yl]-(3,5,6-trifluoro-pyridin-2-yl)-amine]
FC(F)(F)c1cnnc(Nc2cc(-c3nc(N4CCNCC4)c4c(C5CC5)cncc4n3)ccn2)c1 [Example 565, [4-(5-Cyclopropyl-4-piperazin-1-yl-pyrido[3,4-d]pyrimidin-2-yl)-pyridin-2-yl]-(5-trifluoromethyl-pyridazin-3-yl)-amine]
Fc1cnc(Nc2cc(-c3nc(N4CCNCC4)c4c(C5CC5)cnc(Cl)c4n3)ccn2)c(F)c1 [Example 2148, [4-(8-Chloro-5-cyclopropyl-4-piperazin-1-yl-pyrido[3,4-d]pyrimidin-2-yl)-pyridin-2-yl]-(3,5-difluoro-pyridin-2-yl)-amine]
FC[C@H]1CN(c2nc(-c3ccnc(Nc4ccccc4)c3)nc3cncc(C4CC4)c23)CCN1 [Example 552, {4-[5-Cyclopropyl-4-((R)-3-fluoromethyl-piperazin-1-yl)-pyrido[3,4-d]pyrimidin-2-yl]-pyridin-2-yl}-phenyl-amine]
c1ccc(-c2cccc(Nc3cc(-c4nc(N5CCNCC5)c5c(C6CC6)cncc5n4)ccn3)c2)cc1 [Example 2051, Biphenyl-3-yl-[4-(5-cyclopropyl-4-piperazin-1-yl-pyrido[3,4-d]pyrimidin-2-yl)-pyridin-2-yl]-amine]
c1cc(-c2nc(N3CCNCC3)c3c(C4CC4)cncc3n2)cc(Nc2cnn(C3CCCC3)c2)n1 [Example 796, (1-Cyclopentyl-1H-pyrazol-4-yl)-[4-(5-cyclopropyl-4-piperazin-1-yl-pyrido[3,4-d]pyrimidin-2-yl)-pyridin-2-yl]-amine]
c1cc(-c2nc(N3CCNCC3)c3c(C4CC4)cncc3n2)c2cc(C3CCCCC3)[nH]c2n1 [Example 2152, 5-Cyclopropyl-2-(2-cyclohexyl-1H-pyrrolo[2,3-b]pyridin-4-yl)-4-piperazin-1-yl-pyrido[3,4-d]pyrimidine]
COc1cncc2nc(-c3ccnc(N)c3)nc(N3CCNCC3)c12 [Example 208, 4-(5-Methoxy-4-piperazin-1-yl-pyrido[3,4-d]pyrimidin-2-yl)-pyridin-2-ylamine]
c1cc(Nc2cc(-c3nc(N[C@@H]4CCNC4)c4ccncc4n3)ccn2)ncn1 [Example 347, {2-[2-(Pyrimidin-4-ylamino)-pyridin-4-yl]-pyrido[3,4-d]pyrimidin-4-yl}-(R)-pyrrolidin-3-yl-amine]
Clc1ncc(Cl)c2c(N3CCNCC3)nc(-c3ccncc3)nc12 [Example 134, 1-[5,8-dichloro-2-(pyridin-4-yl)pyrido[3,4-d]pyrimidin-4-yl]piperazine]
CC(C)(C)C(=O)N1CCC(Nc2cc(-c3nc(N4CCNCC4)c4c(C5CC5)cncc4n3)ccn2)CC1 [Example 813, 1-{4-[4-(5-Cyclopropyl-4-piperazin-1-yl-pyrido[3,4-d]pyrimidin-2-yl)-pyridin-2-ylamino]-piperidin-1-yl}-2,2-dimethyl-propan-1-one]
FC(F)(F)c1ccnc(Nc2cc(-c3nc(N4CCNCC4)c4c(Cl)cncc4n3)ccn2)c1 [Example 259, [4-(5-Chloro-4-piperazin-1-yl-pyrido[3,4-d]pyrimidin-2-yl)-pyridin-2-yl]-(4-trifluoromethyl-pyridin-2-yl)-amine]
C[C@@H](Nc1cc(-c2nc(N3CCNCC3)c3c(C4CC4)cncc3n2)ccn1)C1CCCCC1 [Example 811, ((R)-1-Cyclohexyl-ethyl)-[4-(5-cyclopropyl-4-piperazin-1-yl-pyrido[3,4-d]pyrimidin-2-yl)-pyridin-2-yl]-amine]
CC(C)(C)c1cc2c(-c3nc(N4CCNCC4)c4c(C5CC5)cncc4n3)ccnc2[nH]1 [Example 1231, 2-(2-tert-Butyl-1H-pyrrolo[2,3-b]pyridin-4-yl)-5-cyclopropyl-4-piperazin-1-yl-pyrido[3,4-d]pyrimidine]
COc1cncc2nc(-c3ccnc(NC(=O)Cc4ccccc4)c3)nc(N3CCNCC3)c12 [Example 371, N-[4-(5-Methoxy-4-piperazin-1-yl-pyrido[3,4-d]pyrimidin-2-yl)-pyridin-2-yl]-2-phenyl-acetamide]
Fc1cccnc1-c1cc2c(-c3nc(N4CCNCC4)c4c(C5CCC5)cncc4n3)ccnc2[nH]1 [Example 2180, 5-Cyclobutyl-2-[2-(3-fluoro-pyridin-2-yl)-1H-pyrrolo[2,3-b]pyridin-4-yl]-4-piperazin-1-yl-pyrido[3,4-d]pyrimidine]
Fc1ccccc1-c1cc2c(-c3nc(N4CCNCC4)c4c(C5CCC5)cncc4n3)ccnc2[nH]1 [Example 2203, 5-Cyclobutyl-2-[2-(2-fluoro-phenyl)-1H-pyrrolo[2,3-b]pyridin-4-yl]-4-piperazin-1-yl-pyrido[3,4-d]pyrimidine]
c1ccc(C[C@H]2CN(c3nc(-c4ccnc5[nH]ccc45)nc4cncc(C5CC5)c34)CCN2)cc1 [Example 1219, 4-((S)-3-Benzyl-piperazin-1-yl)-5-cyclopropyl-2-(1H-pyrrolo[2,3-b]pyridin-4-yl)-pyrido[3,4-d]pyrimidine]
COc1ccc(Nc2cc(-c3nc(N4CCNCC4)c4c(OC)cncc4n3)ccn2)cn1 [Example 394, [4-(5-Methoxy-4-piperazin-1-yl-pyrido[3,4-d]pyrimidin-2-yl)-pyridin-2-yl]-(6-methoxy-pyridin-3-yl)-amine]
Cc1ccc(F)c(Nc2cc(-c3nc(N4CCNCC4)c4c(C5CC5)cncc4n3)ccn2)c1F [Example 557, [4-(5-Cyclopropyl-4-piperazin-1-yl-pyrido[3,4-d]pyrimidin-2-yl)-pyridin-2-yl]-(2,6-difluoro-3-methyl-phenyl)-amine]
C[C@@H](Nc1cc(-c2nc(N3CCNCC3)c3c(C4CC4)cncc3n2)ccn1)c1ccc(F)cc1 [Example 652]
c1cc(-c2nc(N3CCNCC3)c3c(C4CC4)cncc3n2)c2cc(C3CCOC3)[nH]c2n1 (centres unmarked) [Example 2192, 5-Cyclopropyl-4-piperazin-1-yl-2-[2-(tetrahydro-furan-3-yl)-1H-pyrrolo[2,3-b]pyridin-4-yl]-pyrido[3,4-d]pyrimidine]
CC(C)(C)c1cc2c(-c3nc(N4CCNCC4)c4c(C5CC5)cnc(Cl)c4n3)ccnc2[nH]1 [Example 2118, 2-(2-tert-Butyl-1H-pyrrolo[2,3-b]pyridin-4-yl)-8-chloro-5-cyclopropyl-4-piperazin-1-yl-pyrido[3,4-d]pyrimidine]
C[C@H]1CN(c2nc(-c3ccnc4[nH]c(C(C)(C)C)cc34)nc3cncc(C4CCC4)c23)CCN1 [Example 2008, 2-(2-tert-Butyl-1H-pyrrolo[2,3-b]pyridin-4-yl)-5-cyclobutyl-4-((S)-3-methyl-piperazin-1-yl)-pyrido[3,4-d]pyrimidine]
